Source: ChEMBL document CHEMBL5728513, “Substituted isoindolin-1-ones and 2,3-dihydro-1h-pyrrolo[3,4-c]pyridin-1-ones as hpk1 antagonists” (2021)

Target: Mitogen-activated protein kinase kinase kinase kinase 1 (Homo sapiens, UniProt Q92918)
Assay: Biochemical Enzyme Assay: HPK1 biochemical enzyme assay: HPK1 enzyme inhibition was measured using a microfluidic mobility shift assay. […] Test compounds were titrated in ten point curves (top final assay concentration […]), and preincubated with enzyme/substrate mix for 30 min prior to initiation of the reaction by addition of ATP (1 mM final concentration) and substrate (1 Î¼M final concentration; Carna Biosciences) diluted in assay buffer supplemented by MgCl2 (final assay concentration of 5 mM). Following 60 min incubation at RT, the reaction was terminated by addition of 60 µl/well termination buffer (Carna Biosciences) and signal determination using a Caliper EZ Reader (Perkin Elmer, UK).

Sequence of Mitogen-activated protein kinase kinase kinase kinase 1 (Q92918 whole entry): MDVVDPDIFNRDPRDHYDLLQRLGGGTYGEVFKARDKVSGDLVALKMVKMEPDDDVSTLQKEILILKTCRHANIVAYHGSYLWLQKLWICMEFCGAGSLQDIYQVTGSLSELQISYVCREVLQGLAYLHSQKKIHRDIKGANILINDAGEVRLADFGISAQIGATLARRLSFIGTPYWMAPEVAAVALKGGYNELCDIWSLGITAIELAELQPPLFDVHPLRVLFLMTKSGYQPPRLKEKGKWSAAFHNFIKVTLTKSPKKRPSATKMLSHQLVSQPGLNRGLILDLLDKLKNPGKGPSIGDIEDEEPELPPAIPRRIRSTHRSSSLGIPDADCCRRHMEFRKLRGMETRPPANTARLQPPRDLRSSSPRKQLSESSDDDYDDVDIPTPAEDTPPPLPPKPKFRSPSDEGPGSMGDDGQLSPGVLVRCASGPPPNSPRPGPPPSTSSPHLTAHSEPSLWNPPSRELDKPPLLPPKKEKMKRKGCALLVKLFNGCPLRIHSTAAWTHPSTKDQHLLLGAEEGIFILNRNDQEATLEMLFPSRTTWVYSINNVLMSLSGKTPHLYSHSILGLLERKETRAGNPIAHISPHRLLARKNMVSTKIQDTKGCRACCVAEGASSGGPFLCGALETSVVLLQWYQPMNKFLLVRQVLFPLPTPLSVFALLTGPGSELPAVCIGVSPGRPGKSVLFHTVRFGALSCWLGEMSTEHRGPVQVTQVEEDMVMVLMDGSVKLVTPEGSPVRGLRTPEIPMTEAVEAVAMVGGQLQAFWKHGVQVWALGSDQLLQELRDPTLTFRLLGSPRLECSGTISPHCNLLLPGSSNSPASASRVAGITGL

IC50 | SMILES
in the range around 550 nM | CN(C)Cc1cc(Nc2ccc(-c3cnc4cc(F)ccn34)c3c2C(=O)NC3)ncc1C1(O)CCOCC1
< 100 nM | CCN(C)Cc1nc(Nc2ccc(-c3cnc4cc(F)ccn34)c3c2C(=O)NC3)ccc1[C@@H]1CCOC1
< 100 nM | CO[C@H]1CCC(c2ccc(Nc3ccc(-c4cnc5cc(F)ccn45)c4c3C(=O)NC4)nc2CN(C)C)C1 (stereo partly drawn)
